# Test: Henry solubility constant Hcp at 298.15 K (mol/(m3 Pa))
# Settings: reference: Odabasi and Adali (2016)
row,SMILES,Henry solubility constant Hcp
1,"Clc1cc2c(Cl)c(Cl)c(Cl)c(Cl)c2c(Cl)c1Cl [1,2,3,4,5,6,7-heptachloronaphthalene]",3.6
2,"Clc1cc(Cl)c2c(Cl)c(Cl)c(Cl)c(Cl)c2c1Cl [1,2,3,4,5,6,8-heptachloronaphthalene]",2.4
3,"Clc1ccc2c(Cl)c(Cl)c(Cl)c(Cl)c2c1Cl [1,2,3,4,5,6-hexachloronaphthalene]",0.78
4,"Clc1c(Cl)c(Cl)c2c(Cl)ccc(Cl)c2c1Cl [1,2,3,4,5,8-hexachloronaphthalene]",0.93
5,"Clc1ccc2c(Cl)c(Cl)c(Cl)c(Cl)c2c1 [1,2,3,4,6-pentachloronaphthalene]",0.078
6,"Clc1cc2c(Cl)cc(Cl)c(Cl)c2c(Cl)c1Cl [1,2,3,5,7,8-hexachloronaphthalene]",0.43
7,"Clc1cc2c(Cl)ccc(Cl)c2c(Cl)c1Cl [1,2,3,5,8-pentachloronaphthalene]",0.17
8,"Clc1cc(Cl)c2c(Cl)c(Cl)ccc2c1Cl [1,2,4,5,6-pentachloronaphthalene]",0.14
9,"Clc1cc(Cl)c2c(Cl)cc(Cl)c(Cl)c2c1 [1,2,4,5,7-pentachloronaphthalene]",0.089
10,"Clc1cc(Cl)c2c(Cl)ccc(Cl)c2c1Cl [1,2,4,5,8-pentachloronaphthalene]",0.26
11,"Clc1cc(Cl)c2c(Cl)cccc2c1Cl [1,2,4,5-tetrachloronaphthalene]",0.15
12,"Clc1cc(Cl)c2c(Cl)c(Cl)cc(Cl)c2c1 [1,2,4,6,8-pentachloronaphthalene]",0.1
13,"Clc1ccc2c(Cl)cc(Cl)c(Cl)c2c1Cl [1,2,4,7,8-pentachloronaphthalene]",0.17
14,"Clc1ccc2c(Cl)cccc2c1Cl [1,2,5-trichloronaphthalene]",0.11
15,"Clc1ccc2c(Cl)c(Cl)ccc2c1 [1,2,6-trichloronaphthalene]",0.17
16,"Clc1cc(Cl)c2cccc(Cl)c2c1 [1,3,5-trichloronaphthalene]",0.071
17,"Clc1ccc(Cl)c2c(Cl)ccc(Cl)c12 [1,4,5,8-tetrachloronaphthalene]",0.35
18,"Clc1ccc(Cl)c2c(Cl)cccc12 [1,4,5-trichloronaphthalene]",0.22
19,Clc1c(Cl)c(Cl)c2c(Cl)c(Cl)c(Cl)c(Cl)c2c1Cl [octachloronaphthalene],1.2
